Patent EP4722212A1, “NOVEL COMPOUND FOR INHIBITING PROTEIN KINASES AND PHARMACEUTICAL COMPOSITION COMPRISING SAME” (Magicbullettherapeutics Co., Ltd., priority 2023, dated 2024)
Read-outs that look alike come from different tables or passages of the source.

What was measured:
Assay in all cases: Kinase panel
Assay type in all cases: biochemical
DYRK1/DYRK1A = DYRK1/DYRK1A (Homo sapiens, UniProt Q13627); conditions: read-out: residual enzyme activity
Method in brief: (§1)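 Biochemical full-panel kinase assay with compounds tested at a single concentration of 1 µM. Values are residual enzyme activity. Kinases were flagged when residual activity was 40% or less, i.e. inhibition of 60% or more.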

P70S6K/RPS6KB1 = P70S6K/RPS6KB1 (Homo sapiens, UniProt P23443); conditions: read-out: residual enzyme activity
Chain of P70S6K/RPS6KB1 (P23443 whole entry): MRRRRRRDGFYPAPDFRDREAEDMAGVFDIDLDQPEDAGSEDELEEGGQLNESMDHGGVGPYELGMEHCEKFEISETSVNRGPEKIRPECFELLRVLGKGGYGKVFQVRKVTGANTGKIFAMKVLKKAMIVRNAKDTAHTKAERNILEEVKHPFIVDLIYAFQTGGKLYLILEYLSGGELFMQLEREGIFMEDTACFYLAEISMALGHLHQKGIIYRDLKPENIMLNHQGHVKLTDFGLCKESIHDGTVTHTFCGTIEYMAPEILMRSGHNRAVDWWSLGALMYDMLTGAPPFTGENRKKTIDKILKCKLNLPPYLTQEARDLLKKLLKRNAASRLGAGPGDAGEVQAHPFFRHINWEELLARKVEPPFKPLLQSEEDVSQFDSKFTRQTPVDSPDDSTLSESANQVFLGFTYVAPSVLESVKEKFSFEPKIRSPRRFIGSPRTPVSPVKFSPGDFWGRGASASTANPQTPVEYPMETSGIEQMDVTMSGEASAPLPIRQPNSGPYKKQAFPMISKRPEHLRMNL
Method in brief: as §1

MLK3/MAP3K11 = MLK3/MAP3K11 (Homo sapiens, UniProt Q16584); conditions: MLK3/MAP3K11, 1 µM; read-out: residual enzyme activity
Method in brief: as §1

FGFR3 = FGFR3 (Homo sapiens, UniProt P22607); conditions: FGFR3, 1 µM; read-out: residual enzyme activity
Chain of FGFR3 (P22607 23-806, species assumed): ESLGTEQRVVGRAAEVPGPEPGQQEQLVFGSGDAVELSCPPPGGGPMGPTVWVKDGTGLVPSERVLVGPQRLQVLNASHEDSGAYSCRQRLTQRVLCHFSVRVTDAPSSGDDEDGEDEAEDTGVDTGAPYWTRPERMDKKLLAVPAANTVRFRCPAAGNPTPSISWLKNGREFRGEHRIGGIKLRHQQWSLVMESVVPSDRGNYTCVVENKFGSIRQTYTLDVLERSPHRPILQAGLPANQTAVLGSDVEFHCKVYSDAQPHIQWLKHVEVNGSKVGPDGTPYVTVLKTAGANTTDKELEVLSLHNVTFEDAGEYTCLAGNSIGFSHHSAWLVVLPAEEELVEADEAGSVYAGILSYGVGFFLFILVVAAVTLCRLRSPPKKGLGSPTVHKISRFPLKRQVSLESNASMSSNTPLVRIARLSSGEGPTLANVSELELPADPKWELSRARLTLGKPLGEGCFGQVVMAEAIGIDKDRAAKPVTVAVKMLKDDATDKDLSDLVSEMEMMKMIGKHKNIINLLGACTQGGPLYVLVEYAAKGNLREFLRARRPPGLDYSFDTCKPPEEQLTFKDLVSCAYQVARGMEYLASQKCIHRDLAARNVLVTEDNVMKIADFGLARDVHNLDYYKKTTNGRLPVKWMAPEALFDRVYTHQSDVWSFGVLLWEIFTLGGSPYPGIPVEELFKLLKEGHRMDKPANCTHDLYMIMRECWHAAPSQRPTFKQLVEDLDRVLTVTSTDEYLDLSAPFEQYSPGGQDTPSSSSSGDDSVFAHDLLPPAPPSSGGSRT
Method in brief: as §1

VRK2 = VRK2 (Homo sapiens, UniProt Q86Y07); conditions: VRK2, 1 µM; read-out: residual enzyme activity
Chain of VRK2 (Q86Y07 whole entry, species assumed): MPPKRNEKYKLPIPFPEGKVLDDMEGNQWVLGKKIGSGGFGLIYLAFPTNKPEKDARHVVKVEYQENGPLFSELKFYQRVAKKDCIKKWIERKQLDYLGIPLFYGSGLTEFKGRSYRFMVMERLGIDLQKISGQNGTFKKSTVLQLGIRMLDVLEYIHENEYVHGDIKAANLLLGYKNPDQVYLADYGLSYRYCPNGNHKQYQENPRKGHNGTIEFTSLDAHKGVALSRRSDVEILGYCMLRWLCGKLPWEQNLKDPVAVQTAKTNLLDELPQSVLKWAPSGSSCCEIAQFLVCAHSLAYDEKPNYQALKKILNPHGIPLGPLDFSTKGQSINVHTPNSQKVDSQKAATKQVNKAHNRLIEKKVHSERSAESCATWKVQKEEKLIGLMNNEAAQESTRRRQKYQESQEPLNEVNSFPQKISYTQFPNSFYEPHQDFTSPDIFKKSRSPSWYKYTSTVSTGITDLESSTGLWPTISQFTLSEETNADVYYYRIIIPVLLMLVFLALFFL
Method in brief: as §1

SYK = SYK (Homo sapiens, UniProt P43405); conditions: read-out: residual enzyme activity
Method in brief: as §1

NEK7 = NEK7 (Homo sapiens, UniProt Q8TDX7); conditions: NEK7, 1 µM; read-out: residual enzyme activity
Method in brief: as §1

CDK9/CYCLIN T2 = CDK9/CYCLIN T2 (Homo sapiens, UniProt P50750); conditions: CDK9/cyclin T2, 1 µM; read-out: residual enzyme activity
Method in brief: as §1

MASTL = MASTL (Homo sapiens, UniProt Q96GX5); conditions: read-out: residual enzyme activity
Method in brief: as §1

STK16 = STK16 (Homo sapiens, UniProt O75716); conditions: STK16, 1 µM; read-out: residual enzyme activity
Method in brief: as §1

KHS/MAP4K5 = KHS/MAP4K5 (Homo sapiens, UniProt Q9Y4K4); conditions: KHS/MAP4K5, 1 µM; read-out: residual enzyme activity
Method in brief: as §1

FYN = FYN (Homo sapiens, UniProt P06241); conditions: read-out: residual enzyme activity
Chain of FYN (P06241 whole entry, species assumed): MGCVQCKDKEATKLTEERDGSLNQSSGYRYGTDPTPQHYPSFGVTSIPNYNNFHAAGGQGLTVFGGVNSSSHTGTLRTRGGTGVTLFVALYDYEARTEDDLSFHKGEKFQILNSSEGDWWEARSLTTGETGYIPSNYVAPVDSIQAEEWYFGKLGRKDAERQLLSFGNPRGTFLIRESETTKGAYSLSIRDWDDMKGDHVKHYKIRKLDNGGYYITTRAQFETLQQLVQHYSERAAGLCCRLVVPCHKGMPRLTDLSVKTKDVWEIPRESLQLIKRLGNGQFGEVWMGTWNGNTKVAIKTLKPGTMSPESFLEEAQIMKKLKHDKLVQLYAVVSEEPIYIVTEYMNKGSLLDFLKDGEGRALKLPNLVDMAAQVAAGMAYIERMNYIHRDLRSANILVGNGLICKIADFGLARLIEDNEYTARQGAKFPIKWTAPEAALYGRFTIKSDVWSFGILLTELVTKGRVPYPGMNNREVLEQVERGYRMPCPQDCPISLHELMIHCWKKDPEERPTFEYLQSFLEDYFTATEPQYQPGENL
Method in brief: as §1

ALK = ALK (Homo sapiens, UniProt Q9UM73); conditions: read-out: residual enzyme activity
Method in brief: as §1

LATS2 = LATS2 (Homo sapiens, UniProt Q9NRM7); conditions: LATS2, 1 µM; read-out: residual enzyme activity
Method in brief: as §1

DDR2 = DDR2 (Homo sapiens, UniProt Q16832); conditions: DDR2, 1 µM; read-out: residual enzyme activity
Method in brief: as §1

MST2/STK3 = MST2/STK3 (Homo sapiens, UniProt Q13188); conditions: MST2/STK3, 1 µM; read-out: residual enzyme activity
Method in brief: as §1

PKG1A = PKG1A (Homo sapiens, UniProt Q13976); conditions: read-out: residual enzyme activity
Method in brief: as §1

EPHA6 = EPHA6 (Homo sapiens, UniProt Q9UF33); conditions: EPHA6, 1 µM; read-out: residual enzyme activity
Method in brief: as §1

EPHA2 = EPHA2 (Homo sapiens, UniProt P29317); conditions: EPHA2, 1 µM; read-out: residual enzyme activity
Method in brief: as §1

TYRO3/SKY = TYRO3/SKY (Homo sapiens, UniProt Q06418); conditions: read-out: residual enzyme activity
Method in brief: as §1

LCK = LCK (Homo sapiens, UniProt P06239); conditions: read-out: residual enzyme activity
Chain of LCK (P06239 whole entry, species assumed): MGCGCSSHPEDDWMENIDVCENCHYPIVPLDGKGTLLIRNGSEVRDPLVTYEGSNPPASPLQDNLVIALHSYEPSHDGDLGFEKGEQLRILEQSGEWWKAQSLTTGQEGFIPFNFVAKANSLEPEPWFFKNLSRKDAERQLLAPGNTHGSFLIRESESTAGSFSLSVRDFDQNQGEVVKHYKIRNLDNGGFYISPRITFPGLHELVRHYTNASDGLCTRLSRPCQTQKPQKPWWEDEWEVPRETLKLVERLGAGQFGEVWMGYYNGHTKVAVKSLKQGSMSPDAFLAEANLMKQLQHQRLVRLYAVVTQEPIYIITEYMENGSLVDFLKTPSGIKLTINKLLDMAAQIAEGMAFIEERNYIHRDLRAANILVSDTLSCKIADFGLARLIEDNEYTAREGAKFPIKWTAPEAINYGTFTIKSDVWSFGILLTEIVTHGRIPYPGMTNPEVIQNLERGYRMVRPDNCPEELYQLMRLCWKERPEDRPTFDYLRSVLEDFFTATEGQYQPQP
Method in brief: as §1

BMPR2 = BMPR2 (Homo sapiens, UniProt Q13873); conditions: BMPR2, 1 µM; read-out: residual enzyme activity
Method in brief: as §1

NEK1 = NEK1 (Homo sapiens, UniProt Q96PY6); conditions: NEK1, 1 µM; read-out: residual enzyme activity
Method in brief: as §1

CLK4 = CLK4 (Homo sapiens, UniProt Q9HAZ1); conditions: CLK4, 1 µM; read-out: residual enzyme activity
Method in brief: as §1

MKK7 = MKK7 (Homo sapiens, UniProt O14733); conditions: MKK7, 1 µM; read-out: residual enzyme activity
Method in brief: as §1

BRAF = BRAF (Homo sapiens, UniProt P15056); conditions: read-out: residual enzyme activity
Chain of BRAF (P15056 whole entry, species assumed): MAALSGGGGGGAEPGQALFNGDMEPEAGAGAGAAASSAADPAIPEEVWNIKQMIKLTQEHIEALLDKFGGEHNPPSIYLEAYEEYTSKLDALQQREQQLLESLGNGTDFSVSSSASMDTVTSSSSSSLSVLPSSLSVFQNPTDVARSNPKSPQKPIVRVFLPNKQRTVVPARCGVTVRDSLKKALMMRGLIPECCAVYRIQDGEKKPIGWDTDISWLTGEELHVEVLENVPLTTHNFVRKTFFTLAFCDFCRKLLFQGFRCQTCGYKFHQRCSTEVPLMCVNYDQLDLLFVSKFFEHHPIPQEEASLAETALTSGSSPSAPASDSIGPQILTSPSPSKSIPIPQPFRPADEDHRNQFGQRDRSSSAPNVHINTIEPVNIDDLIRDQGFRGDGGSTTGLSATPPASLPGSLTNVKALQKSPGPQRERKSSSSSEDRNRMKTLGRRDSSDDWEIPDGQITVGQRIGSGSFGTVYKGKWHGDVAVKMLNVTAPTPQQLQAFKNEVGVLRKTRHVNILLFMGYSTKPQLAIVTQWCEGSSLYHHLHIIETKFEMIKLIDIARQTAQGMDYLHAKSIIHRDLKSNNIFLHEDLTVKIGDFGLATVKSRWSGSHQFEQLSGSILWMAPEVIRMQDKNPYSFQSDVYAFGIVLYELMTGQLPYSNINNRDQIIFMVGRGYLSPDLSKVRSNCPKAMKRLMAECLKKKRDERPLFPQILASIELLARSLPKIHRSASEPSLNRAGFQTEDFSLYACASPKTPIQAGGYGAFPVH
Method in brief: as §1

JNK1 = JNK1 (Homo sapiens, UniProt P45983); conditions: JNK1, 1 µM; read-out: residual enzyme activity
Method in brief: as §1

TLK1 = TLK1 (Homo sapiens, UniProt Q9UKI8); conditions: TLK1, 1 µM; read-out: residual enzyme activity
Method in brief: as §1

PYK2 = PYK2 (Homo sapiens, UniProt Q14289); conditions: PYK2, 1 µM; read-out: residual enzyme activity
Method in brief: as §1

AXL = AXL (Homo sapiens, UniProt P30530); conditions: read-out: residual enzyme activity
Chain of AXL (P30530 26-894): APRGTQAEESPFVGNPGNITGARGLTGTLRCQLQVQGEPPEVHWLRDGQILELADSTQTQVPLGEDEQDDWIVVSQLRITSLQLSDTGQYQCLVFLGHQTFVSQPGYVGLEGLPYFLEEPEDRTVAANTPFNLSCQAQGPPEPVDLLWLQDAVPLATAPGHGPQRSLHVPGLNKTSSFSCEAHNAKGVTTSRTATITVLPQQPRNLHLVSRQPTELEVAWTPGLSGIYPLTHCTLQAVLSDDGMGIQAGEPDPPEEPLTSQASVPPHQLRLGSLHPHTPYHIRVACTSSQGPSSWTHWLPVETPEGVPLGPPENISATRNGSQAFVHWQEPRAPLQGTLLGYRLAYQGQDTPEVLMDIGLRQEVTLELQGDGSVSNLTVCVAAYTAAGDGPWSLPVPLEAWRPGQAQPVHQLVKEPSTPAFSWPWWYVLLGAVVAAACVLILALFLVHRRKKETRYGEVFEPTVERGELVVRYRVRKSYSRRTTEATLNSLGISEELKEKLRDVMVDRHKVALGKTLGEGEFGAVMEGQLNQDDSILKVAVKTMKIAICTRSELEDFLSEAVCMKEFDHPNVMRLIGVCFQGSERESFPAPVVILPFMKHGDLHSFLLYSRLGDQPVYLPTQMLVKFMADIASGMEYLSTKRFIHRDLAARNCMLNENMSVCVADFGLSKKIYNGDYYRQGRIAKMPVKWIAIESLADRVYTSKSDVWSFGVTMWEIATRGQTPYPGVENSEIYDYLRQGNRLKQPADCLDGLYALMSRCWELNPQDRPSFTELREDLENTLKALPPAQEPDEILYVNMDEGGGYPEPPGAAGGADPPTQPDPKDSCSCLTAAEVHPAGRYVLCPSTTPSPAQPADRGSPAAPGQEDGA
Method in brief: as §1

STK32B/YANK2 = STK32B/YANK2 (Homo sapiens, UniProt Q9NY57); conditions: STK32B/YANK2, 1 µM; read-out: residual enzyme activity
Method in brief: as §1

GLK/MAP4K3 = GLK/MAP4K3 (Homo sapiens, UniProt Q8IVH8); conditions: GLK/MAP4K3, 1 µM; read-out: residual enzyme activity
Method in brief: as §1

CK1A1 = CK1A1 (Homo sapiens, UniProt P48729); conditions: read-out: residual enzyme activity
Chain of CK1A1 (P48729 whole entry): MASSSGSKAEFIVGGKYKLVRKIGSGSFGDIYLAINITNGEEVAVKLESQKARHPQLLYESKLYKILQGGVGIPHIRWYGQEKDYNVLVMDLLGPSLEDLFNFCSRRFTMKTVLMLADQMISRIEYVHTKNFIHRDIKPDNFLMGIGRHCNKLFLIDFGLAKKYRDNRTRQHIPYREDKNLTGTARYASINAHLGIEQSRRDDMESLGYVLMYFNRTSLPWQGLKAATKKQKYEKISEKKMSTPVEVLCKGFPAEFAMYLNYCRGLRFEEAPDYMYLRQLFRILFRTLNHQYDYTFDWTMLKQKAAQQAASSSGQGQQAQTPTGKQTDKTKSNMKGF
Method in brief: as §1

PKCIOTA = PKCIOTA (Homo sapiens, UniProt P41743); conditions: read-out: residual enzyme activity
Method in brief: as §1

Compound | remaining activity at 1 µM (DYRK1/DYRK1A) | remaining activity at 1 µM (MLK3/MAP3K11) | remaining activity at 1 µM (FGFR3) | remaining activity at 1 µM (VRK2) | remaining activity at 1 µM (SYK) | remaining activity at 1 µM (NEK7) | remaining activity at 1 µM (CDK9/CYCLIN T2) | remaining activity at 1 µM (MASTL) | remaining activity at 1 µM (STK16) | remaining activity at 1 µM (KHS/MAP4K5) | remaining activity at 1 µM (FYN) | remaining activity at 1 µM (ALK) | remaining activity at 1 µM (LATS2) | remaining activity at 1 µM (DDR2) | remaining activity at 1 µM (MST2/STK3) | remaining activity at 1 µM (EPHA6) | remaining activity at 1 µM (EPHA2) | remaining activity at 1 µM (TYRO3/SKY) | remaining activity at 1 µM (LCK) | remaining activity at 1 µM (BMPR2) | also measured
Cc1cn(-c2cc(C(=O)Nc3ccc(C)c(N4Cc5cnc(NC6CC6)nc5C5(CC5)C4=O)c3)cc(C(F)(F)F)c2)cn1 [Compound 8, N-(3-(2'-(cyclopropylamino)-7'-oxo-5'H-spiro[cyclopropane-1,8'-pyrido[4,3-d]pyrimidine]-6'(7'H)-yl)-4-methylphenyl)-3-(4-methyl-1H-imidazol-1-yl)-5-(trifluoromethyl)benzamide] | > 40% | ≤ 40% | ≤ 40% | > 40% | > 40% | > 40% | > 40% | > 40% | > 40% | ≤ 40% | ≤ 40% | > 40% | ≤ 40% | ≤ 40% | > 40% | ≤ 40% | ≤ 40% | > 40% | ≤ 40% | > 40% | remaining activity at 1 µM (P70S6K/RPS6KB1; P70S6K/RPS6KB1, 1 µM): > 40%; remaining activity at 1 µM (PKG1A; PKG1A): > 40%; remaining activity at 1 µM (NEK1): > 40%; remaining activity at 1 µM (CLK4): > 40%; remaining activity at 1 µM (MKK7): > 40%; remaining activity at 1 µM (BRAF): ≤ 40%; remaining activity at 1 µM (JNK1): > 40%; remaining activity at 1 µM (TLK1): > 40%; remaining activity at 1 µM (PYK2): ≤ 40%; remaining activity at 1 µM (AXL): > 40%; remaining activity at 1 µM (STK32B/YANK2): ≤ 40%; remaining activity at 1 µM (GLK/MAP4K3): ≤ 40%; remaining activity at 1 µM (CK1A1; CK1A1, 1 µM): > 40%; remaining activity at 1 µM (PKCIOTA): > 40%
Cc1ccc(Nc2ncc3c(n2)C2(CC2)C(=O)N(c2cc(NC(=O)c4cccc(C(F)(F)F)c4)ccc2C)C3)cn1 [Compound 51, N-(4-methyl-3-(2'-((6-methylpyridin-3-yl)amino)-7'-oxo-5'H-spiro[cyclopropane-1,8'-pyrido[4,3-d]pyrimidine]-6'(7'H)-yl)phenyl)-3-(trifluoromethyl)benzamide] | > 40% | ≤ 40% | ≤ 40% | > 40% | ≤ 40% | > 40% | > 40% | > 40% | > 40% | ≤ 40% | ≤ 40% | > 40% | ≤ 40% | ≤ 40% | > 40% | ≤ 40% | ≤ 40% | ≤ 40% | ≤ 40% | > 40% | remaining activity at 1 µM (P70S6K/RPS6KB1; p70S6K/RPS6KB1, 1 µM): ≤ 40%; remaining activity at 1 µM (PKG1A; PKGla): > 40%; remaining activity at 1 µM (NEK1): > 40%; remaining activity at 1 µM (CLK4): > 40%; remaining activity at 1 µM (MKK7): > 40%; remaining activity at 1 µM (BRAF): ≤ 40%; remaining activity at 1 µM (JNK1): ≤ 40%; remaining activity at 1 µM (TLK1): > 40%; remaining activity at 1 µM (PYK2): ≤ 40%; remaining activity at 1 µM (AXL): > 40%; remaining activity at 1 µM (STK32B/YANK2): ≤ 40%; remaining activity at 1 µM (GLK/MAP4K3): ≤ 40%; remaining activity at 1 µM (CK1A1; CKlal, 1 µM): > 40%; remaining activity at 1 µM (PKCIOTA): > 40%
